In ChEMBL document CHEMBL1124940, “N-[(arylmethoxy)phenyl] carboxylic acids, hydroxamic acids, tetrazoles, and sulfonyl carboxamides. Potent orally active leukotriene D4 antagonists of novel structure” (J Med Chem, 1990):

Experiments:
[1] = tested on: Cavia porcellus; assay: Tested for the inhibition of LTD4-induced broncho constriction in Guinea pig; injected intraduodenally at a dose of 25 mg/kg; format: functional; conditions: route intraduodenal
[2] = tested on: Cavia porcellus; assay: Inhibition of LTD4-induced broncho constriction in Guinea pig after intraduodenal administration of a dose of 3 mg/kg; format: functional
[3] = tested on: Cavia porcellus; assay: Inhibition of LTD4-induced broncho constriction in Guinea pig, compound injected intraduodenally at a dose of 25 mg/kg; format: functional; conditions: route intraduodenal
[4] = tested on: Cavia porcellus; assay: Inhibition of LTD4-induced bronchoconstriction in Guinea pig after intragastrical administration of dose of 3 mg/kg; format: functional; conditions: po, route intragastric
[5] = tested on: Cavia porcellus; assay: Inhibition of ovalbumin induced bronchoconstriction in Guinea pig, compound injected intraduodenally at a dose of 10 mg/kg; format: functional; conditions: route intraduodenal
[6] = tested on: Cavia porcellus; assay: Inhibition of ovalbumin induced bronchoconstriction in Guinea pig, compound injected intraduodenally at a dose of 25 mg/kg; format: functional; conditions: route intraduodenal
[7] = tested on: Cavia porcellus; assay: Inhibition of ovalbumin induced bronchoconstriction in Guinea pig, compound injected intragastrically, dose is 10 mg/kg; format: functional; conditions: po, route intragastric
[8] = tested on: Cavia porcellus; assay: Inhibition of ovalbumin induced bronchoconstriction in Guinea pig, compound injected intragastrically, dose is 25 mg/kg; format: functional; conditions: po, route intragastric
[9] = tested on: Cavia porcellus; assay: Inhibition of LTD4-induced bronchoconstriction in Guinea pig after intragastrical administration of dose of 25 mg/kg; format: functional; conditions: po, route intragastric
[10] = tested on: Cavia porcellus; assay: Dissociation constant was determined in vitro after intraduodenal administration in isolated guinea pig trachea; format: ADME, organism-based; conditions: in vivo, other
[11] = tested on: Cavia porcellus; assay: Inhibition of LTD4-induced broncho constriction in Guinea pig after intragastrical administration of a dose of 25 mg/kg; format: functional; conditions: po, route intragastric
[12] = tested on: Cavia porcellus; assay: In vitro inhibition of LTD4-induced bronchoconstriction into isolated guinea pig trachea by injecting intragastrically; format: functional; conditions: po
[13] = tested on: Cavia porcellus; assay: Inhibition of ovalbumin-induced broncho constriction in Guinea pig after intraduodenal administration of a dose of 25 mg/kg; format: functional
[14] = tested on: Cavia porcellus; assay: Tested for the inhibition of LTD4-induced bronchoconstriction in Guinea pig, compound injected intraduodenally, dose of 3 mg/kg; format: functional; conditions: route intraduodenal
[15] = tested on: Cavia porcellus; assay: Tested for the inhibition of LTD4-induced bronchoconstriction in Guinea pig, compound injected intragastrically at dose of 3 mg/kg.; format: functional; conditions: po, route intragastric
[16] = tested on: Cavia porcellus; assay: Tested for the inhibition of ovalbumin induced bronchoconstriction in Guinea pig, compound injected intragastrically at dose of 10 mg/kg.; format: functional; conditions: po, route intragastric
[17] = tested on: Cavia porcellus; assay: Tested for the inhibition of ovalbumin- induced bronchoconstriction in Guinea pig, compound injected intragastrically at dose of 25 mg/kg.; format: functional; conditions: po, route intragastric
[18] = species on record: Cavia porcellus; assay: Dose of antagonist that produces 50% inhibition of ovalbumin-induced bronchoconstriction.; format: functional
[19] = target: T1, Polyunsaturated fatty acid 5-lipoxygenase (Rattus norvegicus, UniProt P12527); assay: Concentration that produces 50% inhibition of A-23187-stimulated radiolabeled 5-HETE and TXB2 synthesis by PMN 5-lipoxygenase.
T1 sequence (P12527 whole entry): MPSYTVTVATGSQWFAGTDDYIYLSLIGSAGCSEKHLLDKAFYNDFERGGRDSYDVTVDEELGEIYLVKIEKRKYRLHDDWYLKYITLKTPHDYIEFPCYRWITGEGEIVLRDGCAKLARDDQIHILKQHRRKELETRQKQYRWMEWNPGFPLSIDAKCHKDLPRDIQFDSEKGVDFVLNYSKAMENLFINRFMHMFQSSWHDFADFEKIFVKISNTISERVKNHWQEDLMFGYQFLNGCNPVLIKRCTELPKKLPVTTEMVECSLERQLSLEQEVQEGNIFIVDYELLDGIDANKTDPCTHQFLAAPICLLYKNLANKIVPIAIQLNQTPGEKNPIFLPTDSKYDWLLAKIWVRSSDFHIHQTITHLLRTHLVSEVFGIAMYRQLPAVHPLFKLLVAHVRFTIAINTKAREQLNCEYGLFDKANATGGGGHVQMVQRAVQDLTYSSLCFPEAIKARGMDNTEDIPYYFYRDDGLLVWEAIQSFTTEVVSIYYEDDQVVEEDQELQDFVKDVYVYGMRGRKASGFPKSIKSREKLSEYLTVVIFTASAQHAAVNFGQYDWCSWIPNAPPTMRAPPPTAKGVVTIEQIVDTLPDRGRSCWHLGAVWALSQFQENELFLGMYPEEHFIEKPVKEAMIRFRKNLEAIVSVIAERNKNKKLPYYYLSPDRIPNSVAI

[20] = target: T2, Cyclooxygenase (Rattus norvegicus, UniProt P35355+Q63921); assay: Concentration that produces 50% inhibition of A-23187-stimulated radiolabeled 5-HETE and TXB2 synthesis by Prostaglandin G/H synthase; format: protein assay
T2 sequence (P35355 whole entry): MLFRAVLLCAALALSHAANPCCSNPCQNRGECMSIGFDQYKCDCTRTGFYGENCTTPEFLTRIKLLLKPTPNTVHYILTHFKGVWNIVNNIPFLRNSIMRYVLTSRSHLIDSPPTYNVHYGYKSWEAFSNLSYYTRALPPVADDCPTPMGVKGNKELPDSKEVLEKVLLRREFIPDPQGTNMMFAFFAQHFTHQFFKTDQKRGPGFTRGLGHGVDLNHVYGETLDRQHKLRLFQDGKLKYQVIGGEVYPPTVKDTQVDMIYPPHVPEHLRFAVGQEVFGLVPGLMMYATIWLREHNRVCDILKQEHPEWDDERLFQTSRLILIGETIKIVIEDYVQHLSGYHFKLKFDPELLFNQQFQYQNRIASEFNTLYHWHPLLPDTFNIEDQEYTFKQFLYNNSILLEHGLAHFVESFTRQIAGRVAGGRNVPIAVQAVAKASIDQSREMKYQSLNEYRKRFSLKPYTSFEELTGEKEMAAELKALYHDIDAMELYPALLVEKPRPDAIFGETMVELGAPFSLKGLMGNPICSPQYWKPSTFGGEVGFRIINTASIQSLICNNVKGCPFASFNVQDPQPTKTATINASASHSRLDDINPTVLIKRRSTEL
T2 sequence (Q63921 whole entry): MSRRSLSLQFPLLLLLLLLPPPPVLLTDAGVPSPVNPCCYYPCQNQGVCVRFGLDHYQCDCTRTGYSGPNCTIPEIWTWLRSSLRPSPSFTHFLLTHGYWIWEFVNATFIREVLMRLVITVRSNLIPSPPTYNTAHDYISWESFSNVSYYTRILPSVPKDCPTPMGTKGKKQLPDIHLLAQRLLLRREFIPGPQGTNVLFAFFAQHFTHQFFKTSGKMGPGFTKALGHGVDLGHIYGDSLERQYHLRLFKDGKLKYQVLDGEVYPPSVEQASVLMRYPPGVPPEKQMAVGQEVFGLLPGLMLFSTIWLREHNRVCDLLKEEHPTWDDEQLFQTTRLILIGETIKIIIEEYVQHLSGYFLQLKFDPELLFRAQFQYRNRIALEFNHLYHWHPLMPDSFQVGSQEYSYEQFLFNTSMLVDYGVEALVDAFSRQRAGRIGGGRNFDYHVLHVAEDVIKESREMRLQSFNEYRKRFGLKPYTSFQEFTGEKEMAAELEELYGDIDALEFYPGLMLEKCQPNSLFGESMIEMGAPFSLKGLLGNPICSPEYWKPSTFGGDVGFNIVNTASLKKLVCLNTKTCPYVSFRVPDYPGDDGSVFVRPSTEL

[21] = tested on: Rattus norvegicus; assay: Antiinflammatory effect was studied in a rat carrageenan paw edema (CE) assay at 50 mg/kg; format: functional
[22] = tested on: Cavia porcellus; assay: Tested for the inhibition of LTD4-induced bronchoconstriction in Guinea pig, injected intraduodenally, dose is 10 mg/kg; format: functional; conditions: route intraduodenal
[23] = tested on: Cavia porcellus; assay: Inhibition of ovalbumin-induced broncho constriction in Guinea pig after intraduodenal administration of a dose of 10 mg/kg; format: functional
[24] = tested on: Cavia porcellus; assay: Tested for the inhibition of LTD4-induced broncho constriction in Guinea pig, injected intraduodenally at a dose of 25 mg/kg; format: functional; conditions: route intraduodenal
[25] = tested on: Cavia porcellus; assay: Tested for the inhibition of LTD4-induced bronchoconstriction in Guinea pig, injected intragastrically, dose is 3 mg/kg.; format: functional; conditions: po, route intragastric
[26] = tested on: Cavia porcellus; assay: Inhibition of LTD4-induced broncho constriction in Guinea pig after intraduodenal administration of a dose of 25 mg/kg; format: functional
[27] = tested on: Cavia porcellus; assay: Tested for the inhibition of LTD4-induced bronchoconstriction in Guinea pig, compound injected intragastrically at dose of 3 mg/kg; format: functional; conditions: po, route intragastric
[28] = tested on: Cavia porcellus; assay: Inhibition of LTD4-induced broncho constriction in Guinea pig after intragastrical administration of a dose of 3 mg/kg; format: functional; conditions: po, route intragastric
[29] = tested on: Cavia porcellus; assay: Tested for the inhibition of ovalbumin- induced bronchoconstriction in Guinea pig, injected intragastrically, dose of 25 mg/kg; format: functional; conditions: po, route intragastric
[30] = tested on: Cavia porcellus; assay: Tested for the inhibition of LTD4-induced bronchoconstriction in Guinea pig, injected intraduodenally, dose is 3 mg/kg; format: functional; conditions: route intraduodenal
[31] = tested on: Cavia porcellus; assay: Tested for the inhibition of ovalbumin- induced bronchoconstriction in Guinea pig, injected intragastrically, dose of 10 mg/kg; format: functional; conditions: po, route intragastric
[32] = tested on: Cavia porcellus; assay: In vitro inhibition of LTD4-induced bronchoconstriction into isolated guinea pig trachea by injecting intraduodenally; format: functional; conditions: intraduodenal
[33] = species on record: Cavia porcellus; assay: Dose of antagonist that produces 50% inhibition of ovalbumin-induced bronchoconstriction; format: functional
[34] = target: T1, Polyunsaturated fatty acid 5-lipoxygenase; assay: Concentration that produces 50% inhibition of A-23187-stimulated radiolabeled 5-HETE and TXB2 synthesis by PMN 5-lipoxygenase; format: functional
[35] = tested on: Rattus norvegicus; assay: Antiinflammatory effect was studied in a rat carrageenan paw edema (CE) assay at a dose of 50 mg/kg; format: functional
[36] = tested on: Cavia porcellus; assay: -log dissociation constant was determined In vitro in isolated guinea pig trachea after intraduodenal administration (before 10 min); format: ADME, organism-based; conditions: in vivo, other
[37] = tested on: Cavia porcellus; assay: In vitro LTD4-induced bronchoconstriction in isolated guinea pig trachea by injecting intraduodenally; format: functional; conditions: intraduodenal
[38] = tested on: Cavia porcellus; assay: In vitro inhibition of LTD4-induced bronchoconstriction after intragastrical administration 120 min before agonist into isolated guinea pig trachea; format: functional; conditions: po
[39] = tested on: Cavia porcellus; assay: In vitro inhibition of ovalbumin-induced bronchoconstriction after intragastrical administration 120 min before agonist into isolated guinea pig trachea; format: functional; conditions: po
[40] = tested on: Cavia porcellus; assay: In vitro inhibition of ovalbumin-induced bronchoconstriction in isolated guinea pig trachea by injecting intraduodenally; format: functional; conditions: intraduodenal

`Cc1ccc(S(=O)(=O)NC(=O)c2ccc(OCc3ccc4ccccc4n3)cc2)cc1` was tested. Which inhibition in vivo at 25 mg/kg [1] did it give?
The inhibition in vivo at 25 mg/kg was under -9%.

What does the source list for `CONC(=O)c1cccc(OCc2ccc3ccccc3n2)c1`?
inhibition in vivo at 3 mg/kg [2]: 64%; inhibition in vivo at 25 mg/kg [3]: 93%; inhibition in vivo at 3 mg/kg [4]: -6%; inhibition in vivo at 10 mg/kg [5]: 84%; inhibition in vivo at 25 mg/kg [6]: < 77%; inhibition in vivo at 10 mg/kg [7]: 9%; inhibition in vivo at 25 mg/kg [8]: < -2%; inhibition in vivo at 25 mg/kg [9]: < 72%

What does the source list for `Cc1ccc(S(=O)(=O)NC(=O)c2cccc(OCc3ccc4ccccc4n3)c2)cc1`?
pKb [10]: 7.78; inhibition in vivo at 25 mg/kg [11]: 91%; ED50 [12]: 0.4 mg/kg; inhibition in vivo at 25 mg/kg [13]: < 80%; inhibition in vivo at 3 mg/kg [14]: 83%; inhibition in vivo at 3 mg/kg [15]: 86%; inhibition in vivo at 10 mg/kg [16]: 4%; inhibition in vivo at 25 mg/kg [17]: < 57%; ED50 [18]: 2.02 mg/kg; IC50 [19]: 6.2 µM; IC50 [20]: 13.4 µM; inhibition in vivo at 50 mg/kg [21]: < 69%

What does the source list for `Cc1ccc(S(=O)(=O)NC(=O)c2cccc(OCc3ncc4ccccc4n3)c2)cc1`?
inhibition in vivo at 25 mg/kg [11]: 99%; inhibition in vivo at 10 mg/kg [22]: 50%; inhibition in vivo at 10 mg/kg [23]: 66%; inhibition in vivo at 25 mg/kg [24]: 85%; inhibition in vivo at 3 mg/kg [25]: 60%

What does the source list for `O=C(Cc1cccc(OCc2ccc3ccccc3n2)c1)NOCc1ccccc1`?
inhibition in vivo at 25 mg/kg [26]: < 26%; inhibition in vivo at 25 mg/kg [11]: < 67%; inhibition in vivo at 3 mg/kg [27]: 18%

Which results are given for `c1cc(Cc2nnn[nH]2)cc(OCc2ccc3ccccc3n2)c1`?
inhibition in vivo at 25 mg/kg [11]: < 99%; inhibition in vivo at 3 mg/kg [28]: 50%; ED50 [12]: 3 mg/kg; inhibition in vivo at 25 mg/kg [29]: < 31%; inhibition in vivo at 3 mg/kg [30]: 53%; inhibition in vivo at 10 mg/kg [31]: 49%; inhibition in vivo at 25 mg/kg [24]: < 94%; ED50 [32]: 3 mg/kg; ED50 [33]: 6.7 mg/kg; IC50 [34]: 3.9 µM; inhibition in vivo at 50 mg/kg [35]: 30%

What does the source list for `CCCc1c(OCCCCc2nnn[nH]2)ccc(C(C)=O)c1O` [TOMELUKAST]?
pKb [36]: 6.55; ED50 [37]: 6 mg/kg; ED50 [38]: 32 mg/kg; ED50 [39]: 38 mg/kg; ED50 [40]: 19 mg/kg
